Assay results as given in ChEMBL document CHEMBL1201862, “PubChem BioAssay data set” (2004).
Activity calls are given as the source filed them.

Experiments:
[1] = molecular target: Troponin, cardiac muscle (Homo sapiens, UniProt P19429+P45379+P63316); assay: Fluorescence-based biochemical high throughput dose response assay for activators of the calcium sensitivity of cardiac Regulated Thin Filaments (RTF). [Related pubchem assays (depositor defined):AID493008, AID493018, AID504382, AID504383]; format: protein-complex assay
[2] = molecular target: T1, RNA-binding protein pos-1 (Caenorhabditis elegans, UniProt G5EF15); assay: disruptors of C. elegans POS-1 RNA interaction – biochemical, fluorescence polarization, dose response (AID 1964);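 note: purified POS-1 fused to maltose binding protein made in E. coli; potency of compounds blocking POS-1 binding to fluorescent RNA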
T1 sequence (G5EF15 whole entry): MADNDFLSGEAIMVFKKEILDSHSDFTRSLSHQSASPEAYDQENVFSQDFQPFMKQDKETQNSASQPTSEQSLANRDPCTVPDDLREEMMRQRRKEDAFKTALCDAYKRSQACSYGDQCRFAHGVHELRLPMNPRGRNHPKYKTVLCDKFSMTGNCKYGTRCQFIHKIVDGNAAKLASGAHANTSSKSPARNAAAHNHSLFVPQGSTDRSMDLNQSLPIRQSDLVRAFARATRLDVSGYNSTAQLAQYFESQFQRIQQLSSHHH

[3] = molecular target: Dual specificity tyrosine-phosphorylation-regulated kinase 1A (Rattus norvegicus, UniProt Q63470); format: biochemical, Homo sapiens
[4] = viability of HCT116 lacking mutant beta-catenin – cell-based, human colon tumor, dose response (AID 1045); format: functional;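 note: HCT116 colon tumor cells with beta catenin knocked out; cells exposed to compound for 60 hours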
[5] = molecular target: T2, Zinc finger protein mex-5 (Caenorhabditis elegans, UniProt Q9XUB2); assay: potency of MEX-5 RNA-binding blockers – biochemical, C. elegans, fluorescence polarization, dose response (AID 1960)
T2 sequence (Q9XUB2 whole entry): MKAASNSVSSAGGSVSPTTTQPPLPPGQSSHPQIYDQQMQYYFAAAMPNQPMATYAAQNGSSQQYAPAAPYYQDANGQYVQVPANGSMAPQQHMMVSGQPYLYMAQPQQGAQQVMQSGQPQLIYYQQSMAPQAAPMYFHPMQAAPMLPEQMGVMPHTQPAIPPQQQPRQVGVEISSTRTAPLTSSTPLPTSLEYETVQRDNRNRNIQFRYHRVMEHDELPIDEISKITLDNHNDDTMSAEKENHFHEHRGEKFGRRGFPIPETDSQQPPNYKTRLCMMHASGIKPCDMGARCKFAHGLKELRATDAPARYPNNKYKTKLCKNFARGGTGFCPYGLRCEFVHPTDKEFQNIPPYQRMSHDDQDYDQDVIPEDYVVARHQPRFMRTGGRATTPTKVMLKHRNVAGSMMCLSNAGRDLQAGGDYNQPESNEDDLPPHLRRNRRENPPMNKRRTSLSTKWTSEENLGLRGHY

[6] = molecular target: T3, Fibrinogen beta chain (Homo sapiens, UniProt P02675); assay: Fluorescence polarization-based biochemical high throughput dose response assay to identify inhibitors that disrupt the binding of a cyclic peptide (Tn6) to the fibrin proteolytic product D-Dimer and fragment E complex [DD(E )].
[7] = molecular target: ORF 73 (Human herpesvirus 8, UniProt O40947); assay: KSHV LANA DNA-binding disruption – biochemical, fluorescence polarization, cherry-picked samples, dose response (AID 504725); parameters: species or system Human gammaherpesvirus 8;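 note: fluorescence polarization of a labeled DNA duplex reporting LANA DNA binding; potency is for inhibitors that block LANA binding to the DNA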
[8] = molecular target: T3, Fibrinogen beta chain; assay: Fluorescence polarization-based biochemical high throughput dose response assay to identify inhibitors that disrupt the binding of a cyclic peptide (Tn7) to the fibrin proteolytic product D-Dimer and fragment E complex [DD(E )].
[9] = molecular target: Keap1/Nrf2 (Homo sapiens, UniProt Q14145); assay: disruptors of Keap1 binding to Nrf2 peptide – biochemical, fluorescence polarization, cherry-picked samples, dose response (AID 588683)
[10] = molecular target: T4, Long-chain-fatty-acid--AMP ligase FadD28 (Mycobacterium tuberculosis, UniProt P9WQ59); assay: Fluorescence polarization aasay to screen for inhibitors that compete for the binding of FadD28 to a bisubstrate Measured in Biochemical System Using Plate Reader - 2147-01_Inhibitor_Dose_CherryPick_Activity.; format: functional, Mycobacterium tuberculosis H37Rv
T4 sequence (P9WQ59 whole entry): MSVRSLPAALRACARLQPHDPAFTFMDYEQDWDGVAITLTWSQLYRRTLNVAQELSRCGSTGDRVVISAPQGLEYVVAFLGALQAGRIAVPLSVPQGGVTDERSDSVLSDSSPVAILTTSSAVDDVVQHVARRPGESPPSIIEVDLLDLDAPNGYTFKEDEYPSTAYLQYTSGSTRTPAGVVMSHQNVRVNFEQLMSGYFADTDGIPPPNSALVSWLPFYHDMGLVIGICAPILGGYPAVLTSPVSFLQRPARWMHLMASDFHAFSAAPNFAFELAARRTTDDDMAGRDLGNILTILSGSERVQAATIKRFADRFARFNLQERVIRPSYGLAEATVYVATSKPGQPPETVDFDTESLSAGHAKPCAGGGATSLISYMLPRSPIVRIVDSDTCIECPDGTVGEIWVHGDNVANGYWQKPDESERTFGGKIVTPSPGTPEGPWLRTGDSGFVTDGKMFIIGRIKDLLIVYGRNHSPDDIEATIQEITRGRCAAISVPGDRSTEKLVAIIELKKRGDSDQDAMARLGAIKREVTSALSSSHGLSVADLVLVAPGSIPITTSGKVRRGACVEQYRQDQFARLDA

[11] = viability of PTEN-deleted HCT116 cells – cell-based, HCT116 PTEN knockout, dose response (AID 1047); format: functional;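 note: HCT116 colon tumor cells with PTEN knocked out; cells exposed to compound for 60 hours before readout; potency for loss of cell viability measured by luminescence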
[12] = molecular target: X-box-binding protein 1 (Homo sapiens, UniProt P17861); format: functional, Cricetulus griseus;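 note: confirmatory dose-response counter-screen serving a CHOP assay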
[13] = molecular target: G2/mitotic-specific cyclin-B1 (Homo sapiens, UniProt P14635); assay: HeLa cell cycle G2/M accumulation – FACS, mechanism study for Wee1 degradation inhibitor project, late-stage follow-up, panel member Cyclin B Degradation (AID 2088)
[14] = molecular target: Wee1-like protein kinase (Homo sapiens, UniProt P30291); assay: HeLa cell cycle G2/M accumulation – FACS, mechanism study for Wee1 degradation inhibitor project, late-stage follow-up, panel member Wee1 Degradation (AID 2088)
[15] = molecular target: T5, Hexokinase-1 (Homo sapiens, UniProt P19367); assay: SAR analysis of small molecule inhibitors of hexokinase domain containing I (HKDC1) in the hexokinase 1 selectivity assay. [Related pubchem assays (depositor defined):AID493160, AID493190]; format: functional
T5 sequence (P19367 whole entry): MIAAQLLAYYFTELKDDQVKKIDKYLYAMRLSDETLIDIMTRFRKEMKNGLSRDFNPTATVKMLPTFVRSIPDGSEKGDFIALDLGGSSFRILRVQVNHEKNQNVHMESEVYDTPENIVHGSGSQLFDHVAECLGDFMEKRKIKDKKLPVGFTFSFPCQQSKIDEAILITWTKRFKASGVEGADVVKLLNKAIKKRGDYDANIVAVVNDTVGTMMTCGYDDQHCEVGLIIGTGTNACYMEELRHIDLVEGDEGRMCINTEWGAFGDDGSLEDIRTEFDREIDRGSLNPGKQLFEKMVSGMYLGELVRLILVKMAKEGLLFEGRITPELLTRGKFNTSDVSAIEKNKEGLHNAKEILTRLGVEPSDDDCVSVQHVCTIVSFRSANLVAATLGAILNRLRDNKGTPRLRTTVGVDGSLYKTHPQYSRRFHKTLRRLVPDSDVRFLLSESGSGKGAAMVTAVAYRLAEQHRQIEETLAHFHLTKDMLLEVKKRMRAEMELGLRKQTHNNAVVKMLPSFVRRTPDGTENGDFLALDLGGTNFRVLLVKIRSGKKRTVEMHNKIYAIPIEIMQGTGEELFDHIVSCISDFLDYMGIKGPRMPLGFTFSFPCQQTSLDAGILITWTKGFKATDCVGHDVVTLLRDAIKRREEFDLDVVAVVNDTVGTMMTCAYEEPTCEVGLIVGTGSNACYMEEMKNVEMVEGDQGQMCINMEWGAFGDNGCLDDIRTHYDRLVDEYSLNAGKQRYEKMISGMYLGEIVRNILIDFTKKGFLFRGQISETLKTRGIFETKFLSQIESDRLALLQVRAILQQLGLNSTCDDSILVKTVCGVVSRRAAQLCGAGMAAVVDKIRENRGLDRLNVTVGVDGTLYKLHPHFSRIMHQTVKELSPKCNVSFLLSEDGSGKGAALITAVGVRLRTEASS

[16] = molecular target: T6, Hexokinase HKDC1 (Homo sapiens, UniProt Q2TB90); assay: inhibition of HKDC1 glucose phosphorylation – biochemical, W721R variant, dose response (AID 504729); format: functional
T6 sequence (Q2TB90 whole entry): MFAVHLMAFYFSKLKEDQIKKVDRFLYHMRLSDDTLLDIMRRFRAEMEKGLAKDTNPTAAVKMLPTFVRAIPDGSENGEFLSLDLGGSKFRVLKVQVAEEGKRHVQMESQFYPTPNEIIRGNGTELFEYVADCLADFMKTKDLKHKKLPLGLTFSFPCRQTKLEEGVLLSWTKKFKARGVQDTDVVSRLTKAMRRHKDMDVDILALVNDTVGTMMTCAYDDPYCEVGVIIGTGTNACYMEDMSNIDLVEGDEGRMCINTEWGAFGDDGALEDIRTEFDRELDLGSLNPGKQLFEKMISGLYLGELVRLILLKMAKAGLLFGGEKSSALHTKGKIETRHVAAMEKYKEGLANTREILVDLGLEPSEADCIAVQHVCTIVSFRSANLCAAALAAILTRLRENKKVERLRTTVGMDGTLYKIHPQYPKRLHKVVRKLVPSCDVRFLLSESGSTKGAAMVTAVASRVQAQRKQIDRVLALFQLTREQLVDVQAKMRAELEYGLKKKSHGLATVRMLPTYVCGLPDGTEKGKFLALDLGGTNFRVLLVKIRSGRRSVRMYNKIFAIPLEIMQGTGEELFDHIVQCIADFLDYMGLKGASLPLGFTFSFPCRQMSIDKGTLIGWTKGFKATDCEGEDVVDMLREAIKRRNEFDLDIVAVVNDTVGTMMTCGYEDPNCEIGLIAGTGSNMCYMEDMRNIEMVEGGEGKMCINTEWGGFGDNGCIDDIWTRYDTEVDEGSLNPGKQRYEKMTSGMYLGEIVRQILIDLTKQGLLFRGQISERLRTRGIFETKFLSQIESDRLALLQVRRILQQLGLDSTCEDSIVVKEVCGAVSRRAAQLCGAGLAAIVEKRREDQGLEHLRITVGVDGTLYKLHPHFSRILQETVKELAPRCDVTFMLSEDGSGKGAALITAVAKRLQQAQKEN

[17] = molecular target: T6, Hexokinase HKDC1; assay: SAR analysis of small molecule inhibitors of hexokinase domain containing I (HKDC1). [Related pubchem assays (depositor defined):AID493160, AID493190]; format: functional

T3 sequence (P02675 whole entry, the tested form may be a part): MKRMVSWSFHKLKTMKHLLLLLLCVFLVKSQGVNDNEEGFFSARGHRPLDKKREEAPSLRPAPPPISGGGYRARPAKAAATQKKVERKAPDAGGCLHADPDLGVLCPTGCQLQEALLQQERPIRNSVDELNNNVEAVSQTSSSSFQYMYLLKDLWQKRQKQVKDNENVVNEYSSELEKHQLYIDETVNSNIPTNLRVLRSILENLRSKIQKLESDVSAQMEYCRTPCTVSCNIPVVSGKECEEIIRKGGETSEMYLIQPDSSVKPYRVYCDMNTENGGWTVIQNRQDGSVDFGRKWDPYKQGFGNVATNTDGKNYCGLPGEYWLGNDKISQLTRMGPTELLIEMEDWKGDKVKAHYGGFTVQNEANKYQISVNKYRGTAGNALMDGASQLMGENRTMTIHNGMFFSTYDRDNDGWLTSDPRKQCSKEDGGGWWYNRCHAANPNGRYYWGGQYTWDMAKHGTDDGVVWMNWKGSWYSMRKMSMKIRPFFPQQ
X-box-binding protein 1, sequence (P17861 whole entry): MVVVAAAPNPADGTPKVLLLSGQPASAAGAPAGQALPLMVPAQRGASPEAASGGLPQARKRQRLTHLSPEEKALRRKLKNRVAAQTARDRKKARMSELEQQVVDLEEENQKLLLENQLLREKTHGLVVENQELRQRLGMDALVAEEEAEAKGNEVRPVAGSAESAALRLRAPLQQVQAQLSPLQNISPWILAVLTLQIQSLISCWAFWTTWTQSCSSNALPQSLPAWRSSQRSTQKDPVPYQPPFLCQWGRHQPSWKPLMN
Keap1/Nrf2, sequence (Q16236 whole entry): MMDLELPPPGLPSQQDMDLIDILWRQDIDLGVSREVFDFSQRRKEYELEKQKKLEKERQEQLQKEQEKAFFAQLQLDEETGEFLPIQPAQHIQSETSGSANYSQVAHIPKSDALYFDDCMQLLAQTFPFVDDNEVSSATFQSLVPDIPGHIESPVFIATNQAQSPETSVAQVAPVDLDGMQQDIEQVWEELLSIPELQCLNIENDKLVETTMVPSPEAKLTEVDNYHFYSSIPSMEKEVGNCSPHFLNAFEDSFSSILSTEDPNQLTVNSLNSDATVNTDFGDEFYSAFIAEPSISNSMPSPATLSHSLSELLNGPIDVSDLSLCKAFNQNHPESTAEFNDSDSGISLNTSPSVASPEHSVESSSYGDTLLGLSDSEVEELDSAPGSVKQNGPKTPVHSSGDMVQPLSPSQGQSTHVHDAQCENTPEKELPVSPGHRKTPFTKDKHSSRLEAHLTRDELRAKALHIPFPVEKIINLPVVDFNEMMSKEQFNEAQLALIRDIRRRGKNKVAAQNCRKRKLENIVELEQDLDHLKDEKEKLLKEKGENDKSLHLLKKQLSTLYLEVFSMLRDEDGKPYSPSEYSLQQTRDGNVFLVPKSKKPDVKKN
Keap1/Nrf2, sequence (Q14145 whole entry): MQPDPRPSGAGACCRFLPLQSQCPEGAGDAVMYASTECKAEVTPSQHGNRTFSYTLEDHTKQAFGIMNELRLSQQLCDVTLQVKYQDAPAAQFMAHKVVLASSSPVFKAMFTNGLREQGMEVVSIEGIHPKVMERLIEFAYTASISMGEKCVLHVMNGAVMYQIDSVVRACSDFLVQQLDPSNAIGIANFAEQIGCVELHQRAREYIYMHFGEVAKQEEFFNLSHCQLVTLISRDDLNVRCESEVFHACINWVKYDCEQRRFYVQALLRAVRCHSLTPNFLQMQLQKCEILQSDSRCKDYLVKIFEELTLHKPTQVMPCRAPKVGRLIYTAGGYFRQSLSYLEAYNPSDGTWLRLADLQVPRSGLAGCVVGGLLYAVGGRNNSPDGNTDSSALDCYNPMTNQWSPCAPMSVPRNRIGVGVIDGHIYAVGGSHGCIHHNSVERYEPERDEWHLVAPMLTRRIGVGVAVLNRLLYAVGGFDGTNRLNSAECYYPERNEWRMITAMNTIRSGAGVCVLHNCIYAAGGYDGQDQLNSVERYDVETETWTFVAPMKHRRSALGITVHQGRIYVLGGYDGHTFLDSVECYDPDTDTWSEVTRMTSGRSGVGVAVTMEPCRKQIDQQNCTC
Wee1-like protein kinase, sequence (P30291 whole entry, the tested form may be a part): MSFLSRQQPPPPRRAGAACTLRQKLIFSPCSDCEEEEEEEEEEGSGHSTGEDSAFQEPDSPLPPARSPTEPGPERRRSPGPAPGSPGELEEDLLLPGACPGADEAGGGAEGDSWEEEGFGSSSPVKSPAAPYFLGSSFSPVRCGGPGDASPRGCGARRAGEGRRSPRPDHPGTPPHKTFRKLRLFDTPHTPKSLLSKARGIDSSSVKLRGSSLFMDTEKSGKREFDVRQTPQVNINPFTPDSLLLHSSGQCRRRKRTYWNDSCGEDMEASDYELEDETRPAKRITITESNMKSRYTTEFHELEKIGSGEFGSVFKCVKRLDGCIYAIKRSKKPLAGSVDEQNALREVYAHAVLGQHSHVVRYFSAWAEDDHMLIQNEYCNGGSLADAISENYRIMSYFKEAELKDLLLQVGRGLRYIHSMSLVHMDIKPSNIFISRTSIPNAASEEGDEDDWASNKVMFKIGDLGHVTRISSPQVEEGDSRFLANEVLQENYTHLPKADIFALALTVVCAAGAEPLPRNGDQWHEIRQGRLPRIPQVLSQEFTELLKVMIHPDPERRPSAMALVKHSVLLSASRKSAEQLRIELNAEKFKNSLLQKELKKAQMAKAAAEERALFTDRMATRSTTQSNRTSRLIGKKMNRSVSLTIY
ORF 73, sequence (O40947 whole entry, the tested form may be a part): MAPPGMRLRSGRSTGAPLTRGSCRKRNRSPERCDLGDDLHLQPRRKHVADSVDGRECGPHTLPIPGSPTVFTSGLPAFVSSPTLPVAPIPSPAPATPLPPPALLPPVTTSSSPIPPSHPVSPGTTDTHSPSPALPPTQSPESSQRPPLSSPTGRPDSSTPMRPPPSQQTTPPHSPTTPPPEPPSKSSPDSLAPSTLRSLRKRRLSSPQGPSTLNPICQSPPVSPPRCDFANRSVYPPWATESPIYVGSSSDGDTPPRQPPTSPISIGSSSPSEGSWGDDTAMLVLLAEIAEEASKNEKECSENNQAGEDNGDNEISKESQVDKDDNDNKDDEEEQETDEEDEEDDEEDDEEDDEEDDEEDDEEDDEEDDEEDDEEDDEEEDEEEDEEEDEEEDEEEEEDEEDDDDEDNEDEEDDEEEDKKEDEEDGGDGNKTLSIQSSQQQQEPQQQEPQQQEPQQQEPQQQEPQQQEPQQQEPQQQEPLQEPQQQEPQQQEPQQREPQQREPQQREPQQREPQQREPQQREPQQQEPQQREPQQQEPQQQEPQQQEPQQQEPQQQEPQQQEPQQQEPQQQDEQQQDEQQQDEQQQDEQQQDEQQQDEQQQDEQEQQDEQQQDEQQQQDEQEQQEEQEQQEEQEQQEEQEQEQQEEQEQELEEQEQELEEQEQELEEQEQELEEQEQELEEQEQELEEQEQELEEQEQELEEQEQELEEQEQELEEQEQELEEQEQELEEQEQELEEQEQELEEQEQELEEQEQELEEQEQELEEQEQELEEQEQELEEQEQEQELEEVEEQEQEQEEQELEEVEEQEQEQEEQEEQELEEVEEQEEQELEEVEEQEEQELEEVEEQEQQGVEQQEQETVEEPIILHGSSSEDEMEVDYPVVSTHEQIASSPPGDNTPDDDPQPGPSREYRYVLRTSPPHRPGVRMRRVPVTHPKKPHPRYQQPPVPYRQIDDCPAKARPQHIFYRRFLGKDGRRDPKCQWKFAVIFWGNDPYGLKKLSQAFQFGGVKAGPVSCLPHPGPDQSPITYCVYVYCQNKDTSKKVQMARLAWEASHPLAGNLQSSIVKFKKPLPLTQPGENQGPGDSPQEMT
G2/mitotic-specific cyclin-B1, sequence (P14635 whole entry): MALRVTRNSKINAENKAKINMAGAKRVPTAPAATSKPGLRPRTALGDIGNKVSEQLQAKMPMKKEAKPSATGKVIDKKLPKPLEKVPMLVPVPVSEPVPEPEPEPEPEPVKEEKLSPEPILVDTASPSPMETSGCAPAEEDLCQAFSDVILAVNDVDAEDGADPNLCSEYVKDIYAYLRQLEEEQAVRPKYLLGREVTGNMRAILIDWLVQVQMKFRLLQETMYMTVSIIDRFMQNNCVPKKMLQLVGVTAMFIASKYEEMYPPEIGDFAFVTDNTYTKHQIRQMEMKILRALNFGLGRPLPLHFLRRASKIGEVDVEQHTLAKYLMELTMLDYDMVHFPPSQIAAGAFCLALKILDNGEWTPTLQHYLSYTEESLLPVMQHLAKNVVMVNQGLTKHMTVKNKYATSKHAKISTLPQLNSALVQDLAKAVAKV

## N#CC1=C(N)Oc2ccc3ccc(O)cc3c2C1c1ccsc1 (configuration not stated)
[1]
  EC50: 18.8 µM (inactive)
[2]
  EC50: 76.1 µM (inconclusive)
[3]
  AC50: 8.56 µM (active)
[4]
  EC50: 15.4 µM (active)
[5]
  EC50: 11 µM (inconclusive)
[6]
  IC50: 8.51 µM (active)
[7]
  AC50: 51.6 µM (active)
[8]
  IC50: > 83.3 µM (inactive)
[9]
  AC50: > 52 µM (inactive)
[10]
  AC50: 52.3 µM (active)
[11]
  EC50: 10.4 µM (active)

## Cc1nn(-c2ccc(C(F)(F)F)cn2)c(C)c1Oc1ccccc1O
[12]
  Absolute IC50 (XBP1): 10 µM

## Cn1c(=O)cc(OCCCC(=O)Nc2cccc(C(F)(F)F)c2)c2ccccc21
[13]
  EC50: > 49.7 µM (inactive)
[14]
  EC50: > 49.7 µM (inactive)

## Cc1cc2nnc(SCC(=O)Nc3cc(S(=O)(=O)N4CCOCC4)ccc3Cl)n2c2ccccc12
[15]
  IC50: 3.76 µM (active)
[16]
  IC50: 3.16 µM (active)
[17]
  IC50: 3.39 µM (active)
